The target in the assay is T1, LOXL2 (Homo sapiens, UniProt Q9Y4K0).
T1 sequence (Q9Y4K0 26-774): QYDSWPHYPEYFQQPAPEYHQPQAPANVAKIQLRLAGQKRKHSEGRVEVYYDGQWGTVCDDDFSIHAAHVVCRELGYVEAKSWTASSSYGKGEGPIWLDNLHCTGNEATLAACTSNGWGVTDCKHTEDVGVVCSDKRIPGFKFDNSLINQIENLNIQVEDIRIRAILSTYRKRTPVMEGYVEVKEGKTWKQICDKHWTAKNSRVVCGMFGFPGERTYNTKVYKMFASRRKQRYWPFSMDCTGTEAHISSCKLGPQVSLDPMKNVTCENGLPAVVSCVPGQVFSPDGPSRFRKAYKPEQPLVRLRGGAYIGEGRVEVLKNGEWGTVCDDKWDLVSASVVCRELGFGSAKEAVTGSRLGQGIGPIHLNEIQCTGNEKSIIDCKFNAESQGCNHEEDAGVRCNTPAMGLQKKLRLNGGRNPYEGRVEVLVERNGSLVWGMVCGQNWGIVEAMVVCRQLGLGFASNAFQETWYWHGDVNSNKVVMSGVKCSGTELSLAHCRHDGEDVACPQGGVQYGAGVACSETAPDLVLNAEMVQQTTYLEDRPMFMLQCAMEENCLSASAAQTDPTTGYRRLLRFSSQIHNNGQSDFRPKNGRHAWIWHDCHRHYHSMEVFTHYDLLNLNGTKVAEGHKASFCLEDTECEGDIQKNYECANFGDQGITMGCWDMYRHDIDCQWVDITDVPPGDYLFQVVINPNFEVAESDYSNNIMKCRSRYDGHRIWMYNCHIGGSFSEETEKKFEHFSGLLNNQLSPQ
The assay is described as follows: Phase 1 study, LOXL2 activity in plasma after single oral dose (PXS-5878/Simoa). Type of assay: in vivo. On the set-up: from tissue; host or cells: human plasma (activity) and human serum (protein concentration) from clinical trial subjects. The note with it: for Inhibition of LOXL2 activity: healthy humans. The procedure:
To confirm the therapeutic potential of the anti‐fibrotic PXS‐5338 (Figure S5) in humans, LOXL2 inhibition after oral administration was examined in a phase 1 study. […] This underscored the fast resynthesis of LOXL2 in humans, similar to that seen in rodents, with ca. 80% of enzyme activity returning within 24 h.
FIGURE 3 Inhibition of human lysyl oxidase‐like 2 (LOXL2) enzymatic activity by PXS‐5338 in clinical trials. (A) LOXL2 protein concentration in human serum is fairly constant over 24 h. Protein concentrations normalised to pre‐dose levels are plotted over time in healthy subjects treated with different doses (placebo, 100, 200 and 400 mg) of PXS‐5338. Mean ± SD with n = 6/time point. Phase 1 study with healthy male volunteers, ANZCTR ACTRN12617001444370. Legend of (A) also applies to (B) and (C). (B) Dose‐dependent inhibition of LOXL2 in plasma following a single oral dose of 100, 200 mg or 400 mg PXS‐5338. PXS‐5878/Simoa® platform used to measure the residual activity. Mean ± SD with n = 6/time point. (C) Pharmacokinetic (PK) profile of PXS‐5338 in healthy human males. […] (D) Correlation between LOXL2 protein concentration versus % inhibition. Activity data normalised to pre‐dose value.
The platform consists of an activity-based probe (ABP) for the detection of enzyme activity in conjunction with the Simoa^TM (single molecule array) bead technology to isolate the protein. This platform has enabled accurate measurement of total protein and enzymatic activity of LOXL2 from small volumes of serum, plasma and tissue.
In the immunoassay, paramagnetic capture beads are coated with a LOXL2 capture antibody (AF2639). 100 µL of pre-diluted (4-fold) sample in buffer (0.5% Casein, 0.25% Tween-20 in PBS) is combined in a cuvette with the capture beads (25 µL for protein content at 1.6 x 10^7 beads/mL; 100 µL for enzyme activity at 4 x 10^6 beads/mL). The biotinylated detector agent [either a second anti-LOXL2 antibody (AB213598) for protein content or the ABP (PXS-5878) for enzyme activity) is then added during the same incubation with intermittent shaking at room temperature (35 minutes for protein content or 54 minutes for enzyme activity).
Target molecules present in the sample are captured by the antibody coated beads and bound with the detector agent simultaneously. After incubation, beads are pelleted by magnetic separation, excess sample/buffer and reagents aspirated off and beads resuspended in wash buffer to remove unbound proteins and excess reagents.
Following protein capture and incubation with the detector, a conjugate of streptavidin-β-galactosidase (SβG; 100 µL at 300 - 350 pM) is mixed with the beads and incubated (5 minutes with intermittent shaking at room temperature). SβG binds to the biotinylated detector agent, resulting in enzyme-labelling of captured LOXL2. Following a final wash, the beads are resuspended in a resorufin-β-D-galactopyranoside (RGP) substrate solution and transferred to a Simoa^TM Disc (containing a microarray to separate beads into individual microwells). After settling into the microarray via gravity, beads are then sealed in microwells with oil. If LOXL2 is captured and labelled on the bead, β-galactosidase hydrolyses the RGP substrate in the microwell into a fluorescent product that provides the signal for measurement. A single-labelled target molecule results in sufficient fluorescent signal that can be detected and counted by the Simoa^TM optical system. The percentage of bead-containing wells in the array that have a positive signal is proportional to the amount of target or activity present in the sample.
To determine protein concentration, data can be interpolated from a calibration curve using rh LOXL2. For enzyme activity, samples are incubated for at least 30 minutes at room temperature with or without the pan-LOX inhibitor (100 μM BAPN). […]

For the compound `CC(C)c1c(Cc2ccc(S(C)(=O)=O)nc2)c2ncccc2n1C/C(F)=C/CN` [PXS‐5338], the “Inhibition of LOXL2 activity” value reads like this: (single oral dose 100 mg, 4 h) 80%; (single oral dose 100 mg, 24 h) “approximately 20%”; (single oral dose 200 mg, 4 h) “complete inhibition”; (single oral dose 200 mg, 24 h) 50%; (single oral dose 400 mg, 4 h) “complete inhibition”; (single oral dose 400 mg, 24 h) 70%. The IC50 (phase 1 samples, n = 210, read-out: Calculated IC50 from correlation of concentration versus % inhibition) was 0.024 µM.

The record behind these values is article PMC8571951, “An activity‐based bioprobe differentiates a novel small molecule inhibitor from a LOXL2 antibody and provides renewed promise for anti‐fibrotic therapeutic strategies” (Clinical and Translational Medicine, 2021).
